One compound from PMC8909834, “An Orally Bioavailable and Highly Efficacious Inhibitor of CDK9/FLT3 for the Treatment of Acute Myeloid Leukemia” (Cancers, 2022) can be followed below.

Type in all cases: cell-based
In one assay the test system is HL60. Put plainly: Cell viability assay (resazurin). The note with it: Homo sapiens, HL-60; HL60, 72 h, mean ± SD. On the procedure: (§1) Cell culture. MV4-11, HL60, K-562, THP-1, MO91, and U937 cell lines were from the ATCC (Rockville, MD, USA); MOLM-13, NB4, and PL21 cell lines were from the DSMZ (Braunschweig, Germany); and Jurkat cells were from the ECACC (Salisbury, UK). All cells were cultured in RPMI medium (Sigma-Aldrich) supplemented with 10% to 20% of heat-inactivated fetal bovine serum (Sigma-Aldrich), and cells were maintained at 37 °C, 5% CO2, and 95% humidity. All the cell lines were tested to be mycoplasma-negative using MycoAlert^TM mycoplasma detection kit (Lonza, Derrimut, VIC, Australia).
(§2) Cell viability assay. The viability of leukemia cell lines after incubation with CDDD11-8 was determined by their ability to reduce resazurin, as described previously. Cells (5 × 10^3) were seeded into 96-well plates (Corning Inc., Corning, NY, USA) and incubated overnight at 37 °C. Subsequently, they were incubated with CDDD11-8 (concentrations ranging from 0.003 µM to 31.6 µM; using three-fold serial dilutions) or DMSO (final concentration of 0.1%) for 72 h. Afterwards, cells were incubated with 20 µL of resazurin (0.1 mg/mL in PBS) for 4 h at 37 °C under 5% CO2, and the fluorescence intensities were measured using an EnVision® multilabel plate reader at 570 nm (excitation)/585 nm (emission). The concentration required to inhibit cellular growth by 50% (GI50) was determined using the same non-linear regression model as shown above, with Ar (%) = % cell viability, and IC50 replaced with GI50.
In general terms: Resazurin is reduced to fluorescent resorufin, in cell work by metabolically active cells.

The test system of another assay is JURKAT. Put plainly: Cell viability assay (resazurin). The note with it: Homo sapiens, 72 h, mean ± SD. On the procedure:
as §1, §2

A further assay has as its system K-562. Put plainly: Cell viability assay (resazurin). The note with it: Homo sapiens, K562; K-562, 72 h, mean ± SD. How it is done: as §1, §2
For the next assay, the system named is MOLM-13. Put plainly: Cell viability assay (resazurin). The note with it: MOLM-13, 72 h, mean ± SD. How it is done:
as §1, §2

A further assay deals with NB4. Put plainly: Cell viability assay (resazurin). The note with it: Homo sapiens, NB-4; NB4, 72 h, mean ± SD. On the procedure:
as §1, §2

In a further assay the test system is PL21. Put plainly: Cell viability assay (resazurin). The note with it: PL21, 72 h, mean ± SD. How it is done:
as §1, §2

Another assay deals with THP-1. Put plainly: Cell viability assay (resazurin). The note with it: THP-1, 72 h, mean ± SD. How it is done: as §1, §2
A further assay has as its system U937. Put plainly: Cell viability assay (resazurin). The note with it: Homo sapiens, U-937; U937, 72 h, mean ± SD. On the procedure: as §1, §2
The test system of another assay is MOLM-13 cells. Put plainly: Western blotting of cellular signaling pathways. The note with it: MOLM-13, 24 h, concentration-dependent. How it is done:
(§3) Western blotting. Western blotting was performed as described previously. Briefly, cells were lysed after incubation with different concentrations of compounds or control (0.1% DMSO) at the indicated times, samples were denatured at 95 °C for 5 min, and proteins having different molecular weights within each sample were separated by electrophoresis (Bio-Rad, Hercules, CA, USA) on polyacrylamide gels (4–20%, Bio-Rad). Resolved proteins were electrophoretically transferred onto a PVDF membrane and blocked by incubating with 10% w/v non-fat powdered milk dissolved in 1 × Tris-buffered saline-tween 20 (TBST) for 1 h at room temperature prior to incubating overnight with primary antibodies at 4 °C with slight shaking. Chemiluminescence was detected with a ChemiDoc^TM gel imaging system after the membranes have been exposed to ECL substrates (GE Healthcare, PA, USA), and the Image Lab software (Bio-Rad) was used for image capture. The primary antibodies used were: β-Actin (Invitrogen, Cat MA515739, 1:5000), β-Tubulin (Cell Signaling Technology, Cat 2146, 1:1000), AKT (Cell Signaling Technology, Cat 9272, 1:1000), c-MYC (Cell Signaling Technology, Cat 5605, 1:1000), Caspase-3 (Cell Signaling Technology, Cat 9665, 1:1000), Cleaved PARP (Cell Signaling Technology, Cat 5625, 1:1000), ERK1/2 (p44/42 MAPK, Cell Signaling Technology, Cat 4695, 1:1000), GAPDH (Invitrogen, Cat PA1987, 1:1000), MCL-1 (Cell Signaling Technology, Cat 942965, 1:1000), PARP (Cell Signaling Technology, Cat 9532, 1:1000), Phospho-AKT (Ser473) (Cell Signaling Technology, Cat 9271, 1:1000), Phospho-ERK (Thr202/Tyr204) (Cell Signaling Technology, Cat 4370, 1:1000), Phospho-FLT3 (Tyr591) (Cell Signaling Technology, Cat 3461, 1:1000), Phospho-STAT5 (Tyr694) (Cell Signaling Technology, Cat 9359, 1:1000), RNAP II CTD (BioLegend (CA, USA), Cat 664906, 1:1000), RNAP II CTD Phospho-Ser2 (BioLegend, Cat 920204, 1:1000), RNAP II CTD Phospho-Ser5 (Abcam, Cat ab5408, 1:1000), STAT5 (Cell Signaling Technology, Cat 9363, 1:1000), and XIAP (Cell Signaling Technology, Cat 14334, 1:1000). Bands were quantified using ImageJ software (US National Institutes of Health, Bethesda, MD, USA).

Another assay relates to MV4-11 cells. Put plainly: Western blotting of cellular signaling pathways. How it is done:
as §3

Setting [1] is: MV4-11, time-course, within 2 h.

By GI50 is commonly meant the concentration giving 50% growth inhibition. A high value points to less potent growth inhibition. As to `Cc1cnc(N[C@H]2CC[C@H](N)CC2)nc1-c1cnc2ccc(-c3ccccc3)cn12` [CDDD11-8], the concentration for 50% growth inhibition (GI50) is 475 ± 25 nM in the assay on HL60; 599 ± 90 nM in the assay on JURKAT; 1500 ± 47 nM in the assay with K-562; less than 100 nM in the assay on MOLM-13 (Homo sapiens); 70 ± 20 nM with MOLM-13; 473 ± 107 nM in the assay on NB4. Also, the concentration for 50% growth inhibition (GI50) is 339 ± 34 nM with PL21; 340 nM in the assay with PL21 (PL-21, 72 h); 460 nM with THP-1 (Homo sapiens); 459 ± 40 nM with THP-1; 713 ± 93 nM in the assay with U937. Besides, the “phosphorylation of RNAP II CTD at Ser2 and Ser5” value in the assay on MOLM-13 cells is “suppressed”. Moreover, the “level of p-FLT3 Tyr591” value in the assay on MV4-11 cells (MV4-11) is listed as “reduced”. Also, the “expression of MCL-1” value in the assay with MV4-11 cells (MV4-11, 1 µM, 24 h) is “reduced to almost undetectable levels”. In addition, in the assay with MV4-11 cells (MV4-11, 1 µM, 24 h), the “expression of XIAP” value is “reduced to almost undetectable levels”. Moreover, in the assay on MV4-11 cells (MV4-11, 0.3 and 1 µM, as early as 2 h), the “expression of c-MYC” value is given as “completely blocked”. Also, the “reduction of p-RNAP II Ser2 level” value in the assay with MV4-11 cells (setting [1]) is “approximately 20%”. In addition, the “reduction of p-RNAP II Ser5 level” value in the assay with MV4-11 cells (setting [1]) was “approximately 20%”.
